Results taken from PMC4585259 (Frontiers in Pharmacology, 2015).
Like-named read-outs stand apart in the source and are kept apart here. Blank lines part the entries; values can stand above or below the molecule they belong to.

Molecular target: T1, rNav1.2 sodium channels (Rattus norvegicus, UniProt P04775)
T1 construct: host or cells: HEK-293
Assay: QPatch automated patch clamp, inhibition of sodium currents evoked by 5 Hz trains at three extracellular pH values
Assay type: cell-based
Settings: for class of pH-dependence pattern (cluster analysis): Ward's method on 18 variables of affinity, reversibility, onset; for τoffset / τonset: concentration (lidocaine 300 μM, memantine 30 μM)
Method: HEK-293 cells stably expressing rNav1.2 sodium channels were obtained from NeuroSearch (Ballerup, Denmark). The cells were grown in Dulbecco's modified Eagle medium supplemented with 10% FBS. Prior to use, the cells were trypsinized and subsequently kept in suspension in the QPatch cell storage facility in CHO-S- SFM-II medium.
Composition of the extracellular solution was: (in mM): 140 NaCl, 3 KCl, 1 CaCl2 1 MgCl2, 0.1 CdCl2, 20 TEA-Cl, 5 HEPES, adjusted to pH 7.3, Osmolality: 320 mOsm. […] Drugs were synthesized in Gedeon Richter Plc. […] The full list of drugs, with their three-letter codes, concentration, as well as their main therapeutic indication and main mechanism of action are shown in Table 1. […] The choice of concentrations used in this study may seem unusually high.
Data were sampled at a frequency of 25 kHz and filtered at 5 kHz. Junction potential was calculated to be −11 mV and was corrected for. […] Cells having membrane resistance < 500 MOhm, series resistance > 9 MOhm, or capacitance > 22 pF were excluded from analysis. The experimental protocol was also identical to the one used in our previous study: sodium channels were activated by 5 Hz trains of 5 depolarizations (−90 to −10 mV) repeated in every 20 s. In this study, however, the same control–drug-application–washout sequence was repeated four times: at neutral, acidic, alkalic, and again neutral pH. The peak amplitudes of sodium currents throughout the whole experiment are shown plotted against time in Figure 1 and Supplementary Figure 1.
Initial analysis, including subtraction of leak and capacitive artifacts, as well as peak detection were done in the QPatch software. […] All experiments were normalized to the amplitude of the current evoked by the first depolarization of the last train under control conditions. […] For all four drug applications in an experiment, apparent affinity, onset and offset time constants as well as reversibility values were calculated. […] (This method is equivalent to applying the Lineweaver-Burk plot method using a single concentration.) Reversibility values were calculated from control (c), inhibited (i), and wash-out (w) amplitudes as follows: Reversibility = (w-i)/(c-i). Reversibility values should not be regarded as experimental platform-independent properties of compounds. […] However, reversibility values are a valuable source of information regarding physicochemical differences between individual drugs, or between effects of the same drug under different extracellular pH conditions. Onset and offset time constants were determined by single exponential fitting to individual experiments. For neutral pH numerical data were given as the average of the data from the first and the last drug applications. Thin black lines on Figure 1 and Supplemental Figure 1 show the average of five fitted exponentials, (not the exponential fitted to the averaged normalized amplitudes). The numerical values of apparent affinity, onset and offset time constants and reversibility are shown in Table 2, and their relative position is illustrated in Figure 2. Affinity and time constant values were logarithmically transformed for statistics, therefore we show their geometric mean. For recovery data no transformation was done, and we show arithmetic mean values. Significance values were calculated using paired, two-tailed Student's t-test based on five pairs of apparent affinity (log transform), time constant (log transform), or reversibility values obtained from five individual experiments. Because of the large number of comparisons in this study, we accepted p < 0.01 as significant. Cluster analysis was done using Ward's minimum variance method, with Euclidean distance measure. Data were normalized by subtracting the mean (after logarithmic transformation in the case of apparent affinity and time constants), and dividing by the standard deviation.

[1] = pH 6.0, single concentration (lidocaine 300 μM, memantine 30 μM), geometric mean of 5, read-out: apparent affinity
[2] = pH 7.3, single concentration (lidocaine 300 μM, memantine 30 μM), geometric mean of 5, read-out: apparent affinity
[3] = pH 8.6, single concentration (lidocaine 300 μM, memantine 30 μM), geometric mean of 5, read-out: apparent affinity

T1 sequence (P04775 whole entry): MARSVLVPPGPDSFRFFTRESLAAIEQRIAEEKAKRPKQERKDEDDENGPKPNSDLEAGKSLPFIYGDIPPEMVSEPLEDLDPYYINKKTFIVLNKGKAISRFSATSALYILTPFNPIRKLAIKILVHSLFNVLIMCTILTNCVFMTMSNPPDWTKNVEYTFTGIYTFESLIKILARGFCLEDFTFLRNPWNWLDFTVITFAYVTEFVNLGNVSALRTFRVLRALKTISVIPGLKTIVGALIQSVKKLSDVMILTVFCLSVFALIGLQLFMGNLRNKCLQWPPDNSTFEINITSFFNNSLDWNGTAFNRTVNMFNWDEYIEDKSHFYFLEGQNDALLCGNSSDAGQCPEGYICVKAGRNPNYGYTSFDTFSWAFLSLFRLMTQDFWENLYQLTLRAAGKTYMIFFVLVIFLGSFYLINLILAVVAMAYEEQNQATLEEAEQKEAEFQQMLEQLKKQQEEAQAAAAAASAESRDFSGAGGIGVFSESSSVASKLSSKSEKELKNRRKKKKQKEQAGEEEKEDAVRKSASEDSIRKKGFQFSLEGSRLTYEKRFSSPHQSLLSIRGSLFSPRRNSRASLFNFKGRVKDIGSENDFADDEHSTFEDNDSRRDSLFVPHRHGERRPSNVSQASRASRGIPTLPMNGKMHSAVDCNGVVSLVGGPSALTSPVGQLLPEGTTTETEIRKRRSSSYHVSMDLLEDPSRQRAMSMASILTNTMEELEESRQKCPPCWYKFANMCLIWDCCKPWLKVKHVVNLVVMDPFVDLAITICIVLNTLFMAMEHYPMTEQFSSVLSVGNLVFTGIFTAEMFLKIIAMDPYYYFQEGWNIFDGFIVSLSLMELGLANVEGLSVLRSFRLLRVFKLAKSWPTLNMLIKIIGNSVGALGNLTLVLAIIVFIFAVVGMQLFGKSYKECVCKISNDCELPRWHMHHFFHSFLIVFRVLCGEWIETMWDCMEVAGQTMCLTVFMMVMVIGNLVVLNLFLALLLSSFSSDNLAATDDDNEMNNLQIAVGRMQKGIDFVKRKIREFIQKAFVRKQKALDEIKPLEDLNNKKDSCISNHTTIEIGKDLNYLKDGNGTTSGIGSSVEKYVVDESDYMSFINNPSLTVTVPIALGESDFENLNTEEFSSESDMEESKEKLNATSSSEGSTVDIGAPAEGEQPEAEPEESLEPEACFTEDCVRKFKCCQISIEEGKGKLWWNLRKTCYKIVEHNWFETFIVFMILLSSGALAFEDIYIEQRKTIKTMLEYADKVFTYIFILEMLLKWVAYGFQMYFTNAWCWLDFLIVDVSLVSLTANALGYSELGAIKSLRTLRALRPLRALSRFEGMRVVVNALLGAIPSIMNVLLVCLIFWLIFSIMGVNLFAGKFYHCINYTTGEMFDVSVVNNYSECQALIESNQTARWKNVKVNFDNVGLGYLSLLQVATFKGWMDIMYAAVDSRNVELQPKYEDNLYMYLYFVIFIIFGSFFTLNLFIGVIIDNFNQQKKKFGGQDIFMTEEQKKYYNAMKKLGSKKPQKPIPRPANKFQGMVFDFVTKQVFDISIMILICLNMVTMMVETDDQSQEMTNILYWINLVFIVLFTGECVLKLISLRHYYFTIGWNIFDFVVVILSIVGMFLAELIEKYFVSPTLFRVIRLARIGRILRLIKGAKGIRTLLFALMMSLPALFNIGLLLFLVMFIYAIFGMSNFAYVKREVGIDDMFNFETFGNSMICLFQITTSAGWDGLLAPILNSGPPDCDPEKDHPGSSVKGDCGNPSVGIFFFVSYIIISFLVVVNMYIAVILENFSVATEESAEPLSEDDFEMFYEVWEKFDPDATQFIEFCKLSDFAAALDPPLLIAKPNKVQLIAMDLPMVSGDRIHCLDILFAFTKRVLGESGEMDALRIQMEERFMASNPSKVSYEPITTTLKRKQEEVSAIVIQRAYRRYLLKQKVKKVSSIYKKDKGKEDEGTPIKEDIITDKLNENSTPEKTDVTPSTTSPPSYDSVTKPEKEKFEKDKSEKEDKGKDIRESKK

SMILES: Cc1cccc(C)c1OCC(C)N (stereo not drawn) [mexiletine]
class of pH-dependence pattern (cluster analysis): Class F | effect of alkalic pH on onset/offset kinetics (in words): acceleration of onset | Ratio Reversibility (pH 6.0/7.3, cc 300 mM): 0.987 | Ratio Tau Offset (pH 6.0/7.3, cc 300 mM): 1.071 | Ratio Tau Onset (pH 6.0/7.3, cc 300 mM): 1.162 | log Ratio App Aff (pH 6.0/7.3, cc 300 mM): 0.268 | Ratio Reversibility (pH 6.0/8.6, cc 300 mM): 1.300 | Ratio Tau Offset (pH 6.0/8.6, cc 300 mM): 0.938 | Ratio Tau Onset (pH 6.0/8.6, cc 300 mM): 1.411 | log Ratio App Aff (pH 6.0/8.6, cc 300 mM): 0.786 | τoffset (pH 6.0): 21.00 s | τonset (pH 6.0): 15.80 s | Kd [1]: 350 µM | Ratio Reversibility (pH 7.3/8.6, cc 300 mM): 1.317 | Ratio Tau Offset (pH 7.3/8.6, cc 300 mM): 0.875 | Ratio Tau Onset (pH 7.3/8.6, cc 300 mM): 1.214 | log Ratio App Aff (pH 7.3/8.6, cc 300 mM): 0.518 | τoffset (pH 7.3): 19.60 s | τonset (pH 7.3): 13.60 s | Kd [2]: 189 µM | τoffset (pH 8.6): 22.40 s | τonset (pH 8.6): 11.20 s | Kd [3]: 57.3 µM | KD app, effect of acidic medium (pH = 6.0 vs neutral, increased KD app = decreased apparent affinity): MEM,MEX,TOL↑ | Reversibility (pH=6.0, cc 300 mM): 0.78 | Kd (pH=6.0, cc 300 mM, read-out: Apparent Affinity): 350 µM | Reversibility (pH=7.3, cc 300 mM): 0.79 | Kd (pH=7.3, cc 300 mM, read-out: Apparent Affinity): 189 µM | Reversibility (pH=8.6, cc 300 mM): 0.60 | Kd (pH=8.6, cc 300 mM, read-out: Apparent Affinity): 57.3 µM

class of pH-dependence pattern (cluster analysis): Class G | alkalization-induced recovery (neutral-to-alkalic solution exchange, in words): prominent alkalization-induced recovery | reversibility at all three pH values (pH 6.0, 7.3 and 8.6): below 0.6 | τoffset (pH 6.0): 13.20 s | τonset (pH 6.0): 12.60 s | Kd [1]: 38.2 µM | τoffset (pH 7.3): 13.50 s | τonset (pH 7.3): 14.40 s | Kd [2]: 17.4 µM | τoffset (pH 8.6): 16.00 s | τonset (pH 8.6): 14.60 s | Kd [3]: 28.9 µM
SMILES: CCc1nn(CCCN2CCN(c3cccc(Cl)c3)CC2)c(=O)n1CCOc1ccccc1 [nefazodone]
Ratio Reversibility (pH 6.0/7.3, cc 30 mM): 0.854 | Ratio Tau Offset (pH 6.0/7.3, cc 30 mM): 0.978 | Ratio Tau Onset (pH 6.0/7.3, cc 30 mM): 0.875 | log Ratio App Aff (pH 6.0/7.3, cc 30 mM): 0.341 | Ratio Reversibility (pH 6.0/8.6, cc 30 mM): 1.152 | Ratio Tau Offset (pH 6.0/8.6, cc 30 mM): 0.825 | Ratio Tau Onset (pH 6.0/8.6, cc 30 mM): 0.863 | log Ratio App Aff (pH 6.0/8.6, cc 30 mM): 0.122 | Ratio Reversibility (pH 7.3/8.6, cc 30 mM): 1.349 | Ratio Tau Offset (pH 7.3/8.6, cc 30 mM): 0.844 | Ratio Tau Onset (pH 7.3/8.6, cc 30 mM): 0.986 | log Ratio App Aff (pH 7.3/8.6, cc 30 mM): -0.220 | Reversibility (pH=6.0, cc 30 mM): 0.51 | Kd (pH=6.0, cc 30 mM, read-out: Apparent Affinity): 38.2 µM | Reversibility (pH=7.3, cc 30 mM): 0.59 | Kd (pH=7.3, cc 30 mM, read-out: Apparent Affinity): 17.4 µM | Reversibility (pH=8.6, cc 30 mM): 0.44 | Kd (pH=8.6, cc 30 mM, read-out: Apparent Affinity): 28.9 µM
